Experimental data reported in ChEMBL document CHEMBL5120922, “Discovery, Optimization, and Evaluation of Potent and Selective PI3Kδ-γ Dual Inhibitors for the Treatment of B-cell Malignancies” (J Med Chem, 2022).

Columns and labels:
DOHH-2 = test: Antiproliferative activity against human DOHH-2 cells assessed as cell growth inhibition measured after 72 hrs by MTT assay; format: functional, cell-based; settings: DOHH-2, 72 h
[1] = target: Phosphatidylinositol 4,5-bisphosphate 3-kinase catalytic subunit alpha isoform (Homo sapiens, UniProt P42336); test: Inhibition of N-terminal His6-tagged recombinant full length human PI3Kalpha expressed in baculovirus infected Sf21 insect cells at 1 uM by HTRF assay relative to control
Sequence of Phosphatidylinositol 4,5-bisphosphate 3-kinase catalytic subunit alpha isoform (P42336 whole entry, canonical isoform): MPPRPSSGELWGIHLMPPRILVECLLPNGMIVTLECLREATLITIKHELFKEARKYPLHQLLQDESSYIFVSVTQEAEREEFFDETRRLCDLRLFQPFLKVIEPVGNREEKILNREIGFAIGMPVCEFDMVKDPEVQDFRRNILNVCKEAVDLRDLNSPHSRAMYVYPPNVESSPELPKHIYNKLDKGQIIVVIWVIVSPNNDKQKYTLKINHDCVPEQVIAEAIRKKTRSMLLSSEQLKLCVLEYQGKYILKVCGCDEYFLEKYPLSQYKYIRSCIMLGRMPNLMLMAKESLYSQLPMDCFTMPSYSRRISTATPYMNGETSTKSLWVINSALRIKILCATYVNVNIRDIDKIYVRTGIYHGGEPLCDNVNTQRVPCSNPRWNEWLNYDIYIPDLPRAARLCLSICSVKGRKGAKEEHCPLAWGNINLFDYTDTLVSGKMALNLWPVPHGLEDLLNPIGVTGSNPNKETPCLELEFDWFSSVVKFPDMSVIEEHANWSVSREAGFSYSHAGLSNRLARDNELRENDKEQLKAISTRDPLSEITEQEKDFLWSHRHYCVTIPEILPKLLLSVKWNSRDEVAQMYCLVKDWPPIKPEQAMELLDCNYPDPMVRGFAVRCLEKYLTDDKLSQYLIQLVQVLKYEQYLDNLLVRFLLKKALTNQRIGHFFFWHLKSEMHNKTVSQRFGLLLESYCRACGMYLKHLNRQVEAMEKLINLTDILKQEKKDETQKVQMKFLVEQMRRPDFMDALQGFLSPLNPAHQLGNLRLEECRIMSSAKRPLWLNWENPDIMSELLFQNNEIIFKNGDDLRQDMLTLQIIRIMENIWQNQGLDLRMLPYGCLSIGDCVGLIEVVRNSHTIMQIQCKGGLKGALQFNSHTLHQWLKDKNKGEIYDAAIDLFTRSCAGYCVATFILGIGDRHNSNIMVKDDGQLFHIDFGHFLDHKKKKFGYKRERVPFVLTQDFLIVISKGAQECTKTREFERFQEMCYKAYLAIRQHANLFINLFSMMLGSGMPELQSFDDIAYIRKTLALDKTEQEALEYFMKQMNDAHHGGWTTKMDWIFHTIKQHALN

[2] = target: T1, Phosphatidylinositol 4,5-bisphosphate 3-kinase catalytic subunit delta isoform (Homo sapiens) (UniProt O00329); test: Inhibition of N-terminal His6-tagged recombinant full length human PI3Kdelta expressed in baculovirus infected Sf21 insect cells at 0.1 uM by HTRF assay relative to control
T1 sequence (whole entry): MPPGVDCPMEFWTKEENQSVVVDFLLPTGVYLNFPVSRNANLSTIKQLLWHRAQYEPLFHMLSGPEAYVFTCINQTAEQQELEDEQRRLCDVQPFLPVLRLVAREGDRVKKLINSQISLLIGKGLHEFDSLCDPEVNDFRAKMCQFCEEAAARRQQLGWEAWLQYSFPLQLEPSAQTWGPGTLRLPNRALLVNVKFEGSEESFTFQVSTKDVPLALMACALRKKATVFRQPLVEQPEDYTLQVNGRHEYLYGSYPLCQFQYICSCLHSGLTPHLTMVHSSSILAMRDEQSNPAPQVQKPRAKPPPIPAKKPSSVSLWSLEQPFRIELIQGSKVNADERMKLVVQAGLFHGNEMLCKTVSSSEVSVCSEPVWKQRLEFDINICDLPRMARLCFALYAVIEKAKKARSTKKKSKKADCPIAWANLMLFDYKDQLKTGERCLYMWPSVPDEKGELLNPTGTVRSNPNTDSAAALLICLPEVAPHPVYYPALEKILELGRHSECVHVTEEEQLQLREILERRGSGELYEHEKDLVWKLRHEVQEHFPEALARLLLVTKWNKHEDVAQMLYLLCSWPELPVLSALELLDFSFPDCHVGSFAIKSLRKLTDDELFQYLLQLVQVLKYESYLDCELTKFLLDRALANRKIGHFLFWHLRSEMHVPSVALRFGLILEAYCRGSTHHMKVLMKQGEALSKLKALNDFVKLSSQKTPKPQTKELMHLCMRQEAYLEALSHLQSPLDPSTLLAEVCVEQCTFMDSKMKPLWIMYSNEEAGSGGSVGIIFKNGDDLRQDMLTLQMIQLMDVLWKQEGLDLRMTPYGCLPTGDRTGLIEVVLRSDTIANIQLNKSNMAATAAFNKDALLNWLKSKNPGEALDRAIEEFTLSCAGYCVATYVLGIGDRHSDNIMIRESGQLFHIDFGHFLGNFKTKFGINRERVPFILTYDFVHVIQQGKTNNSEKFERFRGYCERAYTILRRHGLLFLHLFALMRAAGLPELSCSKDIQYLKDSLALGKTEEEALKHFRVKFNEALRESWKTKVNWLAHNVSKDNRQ

SUD4 = test: Antiproliferative activity against human SU-DHL-4 cells assessed as cell growth inhibition measured after 72 hrs by MTT assay; format: functional, cell-based; settings: SU-DHL-4, 72 h
[3] = target: T1, Phosphatidylinositol 4,5-bisphosphate 3-kinase catalytic subunit delta isoform (Homo sapiens); test: Inhibition of N-terminal His6-tagged recombinant full length human PI3Kdelta expressed in baculovirus infected Sf21 insect cells at 1 uM by HTRF assay relative to control
SU-DHL-6 = test: Antiproliferative activity against human SU-DHL-6 cells assessed as cell growth inhibition measured after 72 hrs by MTT assay; format: functional, cell-based; settings: SU-DHL-6, 72 h
[4] = target: Phosphatidylinositol 4,5-bisphosphate 3-kinase catalytic subunit beta isoform (Homo sapiens, UniProt P42338); test: Inhibition of N-terminal His6-tagged recombinant full length human PI3Kbeta expressed in baculovirus infected Sf21 insect cells at 1 uM by HTRF assay relative to control
Sequence of Phosphatidylinositol 4,5-bisphosphate 3-kinase catalytic subunit beta isoform (P42338 whole entry, looked up, canonical isoform): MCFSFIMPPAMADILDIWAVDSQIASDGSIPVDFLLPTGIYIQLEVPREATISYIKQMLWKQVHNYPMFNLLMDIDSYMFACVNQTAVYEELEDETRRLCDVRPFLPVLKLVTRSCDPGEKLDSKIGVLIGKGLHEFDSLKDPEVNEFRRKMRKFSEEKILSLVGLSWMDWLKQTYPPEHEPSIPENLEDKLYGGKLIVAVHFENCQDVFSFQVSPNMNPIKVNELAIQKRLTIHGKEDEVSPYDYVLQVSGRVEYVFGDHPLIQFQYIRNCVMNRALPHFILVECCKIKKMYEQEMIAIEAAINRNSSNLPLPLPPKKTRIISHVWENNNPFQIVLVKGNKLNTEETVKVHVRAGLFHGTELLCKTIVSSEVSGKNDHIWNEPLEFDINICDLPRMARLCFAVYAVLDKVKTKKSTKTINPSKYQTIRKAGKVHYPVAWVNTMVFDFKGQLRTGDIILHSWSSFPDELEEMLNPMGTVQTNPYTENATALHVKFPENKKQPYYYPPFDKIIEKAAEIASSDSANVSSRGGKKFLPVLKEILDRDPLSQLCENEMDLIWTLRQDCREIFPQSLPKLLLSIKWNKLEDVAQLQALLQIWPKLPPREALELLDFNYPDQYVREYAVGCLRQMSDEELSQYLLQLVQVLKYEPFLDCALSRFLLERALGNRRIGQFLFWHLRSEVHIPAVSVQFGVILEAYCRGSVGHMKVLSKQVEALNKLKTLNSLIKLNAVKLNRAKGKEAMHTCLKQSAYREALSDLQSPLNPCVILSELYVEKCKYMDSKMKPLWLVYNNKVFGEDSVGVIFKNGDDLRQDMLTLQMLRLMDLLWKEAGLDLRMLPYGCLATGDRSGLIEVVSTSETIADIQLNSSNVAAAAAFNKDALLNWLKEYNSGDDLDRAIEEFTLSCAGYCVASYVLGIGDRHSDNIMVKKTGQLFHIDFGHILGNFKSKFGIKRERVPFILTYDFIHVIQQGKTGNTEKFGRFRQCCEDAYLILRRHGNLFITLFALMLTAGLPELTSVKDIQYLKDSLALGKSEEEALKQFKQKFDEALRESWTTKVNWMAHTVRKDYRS

[5] = target: T2, Phosphatidylinositol 4,5-bisphosphate 3-kinase catalytic subunit gamma isoform (Homo sapiens, UniProt P48736); test: Inhibition of N-terminal His6-tagged recombinant full length human PI3Kgamma expressed in baculovirus infected Sf21 insect cells at 1 uM by HTRF assay relative to control
T2 sequence (P48736 whole entry, looked up, canonical isoform): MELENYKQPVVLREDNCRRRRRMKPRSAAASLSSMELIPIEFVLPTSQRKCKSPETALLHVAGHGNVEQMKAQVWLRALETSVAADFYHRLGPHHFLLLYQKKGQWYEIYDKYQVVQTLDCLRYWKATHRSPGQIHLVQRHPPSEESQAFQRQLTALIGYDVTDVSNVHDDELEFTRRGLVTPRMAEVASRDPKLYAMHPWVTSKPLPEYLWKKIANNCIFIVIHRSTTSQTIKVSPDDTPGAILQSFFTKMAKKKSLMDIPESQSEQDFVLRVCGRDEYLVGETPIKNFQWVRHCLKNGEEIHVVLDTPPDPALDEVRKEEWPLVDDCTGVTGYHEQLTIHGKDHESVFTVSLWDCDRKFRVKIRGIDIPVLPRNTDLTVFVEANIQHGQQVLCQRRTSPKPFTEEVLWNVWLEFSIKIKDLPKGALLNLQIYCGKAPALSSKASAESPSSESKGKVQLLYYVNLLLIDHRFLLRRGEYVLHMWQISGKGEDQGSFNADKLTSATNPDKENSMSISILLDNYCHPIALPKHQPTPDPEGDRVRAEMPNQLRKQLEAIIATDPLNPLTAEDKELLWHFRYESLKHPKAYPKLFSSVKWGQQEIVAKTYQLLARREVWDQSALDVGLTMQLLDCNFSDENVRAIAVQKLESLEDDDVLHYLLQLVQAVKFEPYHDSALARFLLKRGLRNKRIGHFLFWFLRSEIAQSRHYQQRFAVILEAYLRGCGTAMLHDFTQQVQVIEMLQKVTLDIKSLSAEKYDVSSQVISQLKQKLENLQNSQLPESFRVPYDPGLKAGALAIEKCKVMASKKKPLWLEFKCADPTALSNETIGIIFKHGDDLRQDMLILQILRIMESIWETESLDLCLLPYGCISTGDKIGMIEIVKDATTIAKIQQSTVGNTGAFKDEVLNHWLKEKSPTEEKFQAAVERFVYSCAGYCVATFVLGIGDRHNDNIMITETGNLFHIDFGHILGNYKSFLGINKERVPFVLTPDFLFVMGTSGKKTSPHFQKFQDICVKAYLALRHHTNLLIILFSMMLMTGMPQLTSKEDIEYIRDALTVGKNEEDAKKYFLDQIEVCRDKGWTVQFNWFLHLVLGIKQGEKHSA

[6] = target: T2, Phosphatidylinositol 4,5-bisphosphate 3-kinase catalytic subunit gamma isoform; test: Inhibition of N-terminal His6-tagged recombinant full length human PI3Kgamma expressed in baculovirus infected Sf21 insect cells at 0.1 uM by HTRF assay relative to control
[7] = Metabolic stability in human liver microsomes assessed as half life at 1 uM measured upto 60 mins in presence of NADPH; format: ADME, Microsome
[8] = Metabolic stability in human liver microsomes assessed as clearance at 1 uM measured upto 60 mins in presence of NADPH by measuring protein; format: ADME, Microsome; settings: 1 h
[9] = Metabolic stability in human liver microsomes assessed as compound remaining at 1 uM measured upto 60 mins in presence of NADPH; format: ADME, Microsome; settings: read-out: Stability

| Compound | IC50 (DOHH-2) | inhibition [1] | inhibition [2] | IC50 (SUD4) | inhibition [3] | IC50 (SU-DHL-6) | inhibition [4] | inhibition [5] | inhibition [6] | half-life at 1 µM [7] | CLH [8] | remaining at 1 h, 1 µM [9] |
| --- | --- | --- | --- | --- | --- | --- | --- | --- | --- | --- | --- | --- |
| C[C@H]1CC[C@@H](c2nc3cccc(Cl)c3c(=O)n2-c2cc(F)cc(F)c2)N1c1nc(N)nc2[nH]cnc12 | 2210 nM | 90% | 12% | 770 nM | 7% | 840 nM | 68% | 2% | 51% |  |  |  |
| C[C@H]1CC[C@@H](c2nc3cccc(Cl)c3c(=O)n2N2CCOCC2)N1c1nc(N)nc2[nH]cnc12 | 1440 nM | 91% | 81% | 600 nM | 5% | 420 nM | 53% | -2% | 45% |  |  |  |
| C[C@H]1CC[C@@H](c2nc3cccc(Cl)c3c(=O)n2-c2cc(F)cc(F)c2)N1c1nc(N)nc(N)c1C#N | 1170 nM | 66% | 4% | 360 nM | 1% | 580 nM | 43% | -8% | 14% |  |  |  |
| C[C@H]1CC[C@@H](c2nc3cccc(Cl)c3c(=O)n2-c2ccccc2)N1c1nc(N)nc2[nH]ccc12 | 3590 nM | 82% | 74% | 4930 nM | 37% | 1800 nM | 84% | 41% | 88% |  |  |  |
| N#Cc1c(N)nc(N)nc1N1[C@H](c2nc3cccc(Cl)c3c(=O)n2-c2cc(F)cc(F)c2)C[C@@H]2CCCC[C@@H]21 | 3540 nM | 79% | 34% | 1830 nM | 18% | 2750 nM | 84% | 49% | 85% |  |  |  |
| C[C@H]1CC[C@@H](c2nc3cccc(Cl)c3c(=O)n2N2CCOCC2)N1c1nc(N)nc(N)c1C#N | 370 nM | 72% | 10% | 200 nM | 11% | 310 nM | 33% | 0% | 10% |  |  |  |
| C[C@H]1CC[C@@H](c2nc3cccc(Cl)c3c(=O)n2-c2ccccc2)N1c1nc(F)nc2[nH]cnc12 | 910 nM | 49% | 27% | 730 nM | 13% | 490 nM | -1% | 34% | 76% |  |  |  |
| C[C@H]1CC[C@@H](c2nc3cccc(-c4cccnc4)c3c(=O)n2-c2ccccc2)N1c1nc(N)nc(N)c1C#N | 1010 nM | -7% |  | 120 nM |  | 280 nM | 19% |  | 25% | 37.1 min | 37.4 mL/min/g | 32.6% |
| COc1cncc(-c2cccc3nc([C@@H]4CC[C@H](C)N4c4nc(N)nc(N)c4C#N)n(-c4cccnc4)c(=O)c23)c1 | 810 nM | 10% | 8% | 590 nM |  | 150 nM | 54% |  | 23% |  |  |  |
| C[C@H]1CC[C@@H](c2nc3cccc(C#Cc4ccsc4)c3c(=O)n2-c2ccccc2)N1c1nc(N)nc(N)c1C#N | 650 nM | -2% | 5% | 540 nM |  | 520 nM | 15% |  | 49% |  |  |  |
| C[C@H]1CC[C@@H](c2nc3cccc(F)c3c(=O)n2-c2cccnc2)N1c1nc(N)nc(N)c1C#N | 560 nM | 44% | 7% | 120 nM |  | 400 nM | 36% |  | 67% |  |  |  |
| Cc1cc(N2[C@@H](C)CC[C@H]2c2nc3cccc(Cl)c3c(=O)n2-c2ccccc2)nc(N)n1 | 1960 nM | 96% | 93% | 1120 nM | 75% | 1530 nM | 105% | 96% | 99% |  |  |  |
| COc1ccc(C#Cc2cccc3nc([C@@H]4CC[C@H](C)N4c4nc(N)nc(N)c4C#N)n(-c4ccccc4)c(=O)c23)cc1 | 3980 nM | 25% | 43% | 1050 nM |  | 1040 nM | 62% |  | 83% |  |  |  |
| C[C@H]1CC[C@@H](c2nc3cccc(-c4cnn(C5CC5)c4)c3c(=O)n2-c2cccc(F)c2)N1c1nc(N)nc(N)c1C#N | 970 nM | 25% | 16% | 660 nM |  | 250 nM | 59% |  | 29% |  |  |  |
| C[C@H]1CC[C@@H](c2nc3cccc(Cl)c3c(=O)n2-c2ccccc2)N1c1cc(Cl)nc(N)n1 | 2920 nM | 88% | 76% | 2900 nM | 23% | 3150 nM | 92% | 96% | 97% |  |  |  |
| C[C@H]1CC[C@@H](c2nc3cccc(C#Cc4ccccc4)c3c(=O)n2-c2ccccc2)N1c1nc(N)nc(N)c1C#N | 1840 nM | 22% | -3% | 670 nM |  | 400 nM | 11% |  | 40% |  |  |  |
| C[C@H]1CC[C@@H](c2nc3cccc(Cl)c3c(=O)n2-c2cccc(F)c2)N1c1nc(N)nc2[nH]cnc12 | 2610 nM | 58% | 5% | 350 nM | -4% | 480 nM | 57% |  | 1% |  |  |  |
| C[C@H]1CC[C@@H](c2nc3cccc(C#Cc4ccccn4)c3c(=O)n2-c2ccccc2)N1c1nc(N)nc(N)c1C#N | 790 nM | 11% | 6% | 320 nM |  | 600 nM | 41% |  | 29% |  |  |  |
| C[C@H]1CC[C@@H](c2nc3cccc(Cl)c3c(=O)n2-c2cccnc2)N1c1nc(N)nc2[nH]cnc12 | 650 nM | 89% | 15% | 510 nM | 7% | 410 nM | 54% | 0% | 39% |  |  |  |
| C[C@H]1CC[C@@H](c2nc3cccc(Cl)c3c(=O)n2-c2ccccc2)N1c1ccnc(N)n1 | 3970 nM | 78% | 88% | 1200 nM | 11% | 1840 nM | 106% | 100% | 99% |  |  |  |
| N#Cc1c(N)nc(N)nc1N1[C@H](c2nc3cccc(F)c3c(=O)n2-c2cc(F)cc(F)c2)C[C@@H]2CCCC[C@@H]21 | 2470 nM | 84% | 82% | 1450 nM | 23% | 1480 nM | 98% | 75% | 93% |  |  |  |
| COc1cccc(C#Cc2cccc3nc([C@@H]4CC[C@H](C)N4c4nc(N)nc(N)c4C#N)n(-c4ccccc4)c(=O)c23)c1 | 450 nM | 16% | 9% | 510 nM |  | 670 nM | 42% |  | 35% |  |  |  |
